Columns and labels:
Assay type in all cases: cell-based
human TLR7 = target: T1, human TLR7 (Homo sapiens, UniProt Q9NYK1); assay: TLR7 inhibition reporter assay (HEK-Blue cells, SEAP reporter, gardiquimod stimulation); conditions: HEK-Blue cells overexpressing human TLR7, SEAP reporter, gardiquimod 7.5 μM
T1 construct: host or cells: HEK-Blue cells
T1 sequence (Q9NYK1 27-1049): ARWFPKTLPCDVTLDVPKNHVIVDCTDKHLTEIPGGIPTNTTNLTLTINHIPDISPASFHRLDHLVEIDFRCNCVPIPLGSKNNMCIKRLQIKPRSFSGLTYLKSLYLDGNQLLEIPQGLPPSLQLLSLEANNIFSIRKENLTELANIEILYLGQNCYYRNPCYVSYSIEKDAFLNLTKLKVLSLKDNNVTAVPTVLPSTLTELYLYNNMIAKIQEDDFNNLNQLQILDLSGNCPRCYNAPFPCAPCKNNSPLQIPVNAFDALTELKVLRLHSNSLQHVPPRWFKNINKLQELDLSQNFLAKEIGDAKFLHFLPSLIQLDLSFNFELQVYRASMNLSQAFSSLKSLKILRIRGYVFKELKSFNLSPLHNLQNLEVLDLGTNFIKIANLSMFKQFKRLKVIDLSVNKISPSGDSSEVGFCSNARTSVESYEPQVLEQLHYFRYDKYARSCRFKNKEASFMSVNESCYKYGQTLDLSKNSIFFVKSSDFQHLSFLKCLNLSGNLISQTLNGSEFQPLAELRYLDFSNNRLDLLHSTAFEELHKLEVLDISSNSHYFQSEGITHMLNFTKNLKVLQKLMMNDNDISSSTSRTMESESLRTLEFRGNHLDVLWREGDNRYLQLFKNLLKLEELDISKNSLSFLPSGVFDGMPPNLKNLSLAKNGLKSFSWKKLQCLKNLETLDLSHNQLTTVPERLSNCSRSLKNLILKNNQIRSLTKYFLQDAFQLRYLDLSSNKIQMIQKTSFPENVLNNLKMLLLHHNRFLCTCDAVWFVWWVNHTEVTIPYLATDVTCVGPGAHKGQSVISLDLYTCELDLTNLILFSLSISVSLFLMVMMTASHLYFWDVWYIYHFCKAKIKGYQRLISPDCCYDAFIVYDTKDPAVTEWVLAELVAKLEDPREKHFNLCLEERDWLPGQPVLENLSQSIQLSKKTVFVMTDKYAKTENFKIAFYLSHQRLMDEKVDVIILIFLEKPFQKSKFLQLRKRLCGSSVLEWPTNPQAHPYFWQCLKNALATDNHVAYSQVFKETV
Method in brief: (§1)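 Dose range 0.05 nM–50 μM; 30 min preincubation, RT. Agonists: TLR7 gardiquimod 7.5 μM, TLR8 R848 15.9 μM, TLR9 ODN2006 5 nM. 22 h, 37 °C, 5% CO2. SEAP (IFN-β minimal promoter with NF-κB/AP-1 sites) via colorimetric detection medium; % inhibition vs agonist+DMSO and reference-inhibitor wells.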

human TLR8 = target: T2, human TLR8 (Homo sapiens, UniProt Q9NR97); assay: TLR8 inhibition reporter assay (HEK-Blue cells, SEAP reporter, R848 stimulation); conditions: HEK-Blue cells overexpressing human TLR8, SEAP reporter, R848 15.9 μM
T2 construct: host or cells: HEK-Blue cells
T2 sequence (Q9NR97 27-1041): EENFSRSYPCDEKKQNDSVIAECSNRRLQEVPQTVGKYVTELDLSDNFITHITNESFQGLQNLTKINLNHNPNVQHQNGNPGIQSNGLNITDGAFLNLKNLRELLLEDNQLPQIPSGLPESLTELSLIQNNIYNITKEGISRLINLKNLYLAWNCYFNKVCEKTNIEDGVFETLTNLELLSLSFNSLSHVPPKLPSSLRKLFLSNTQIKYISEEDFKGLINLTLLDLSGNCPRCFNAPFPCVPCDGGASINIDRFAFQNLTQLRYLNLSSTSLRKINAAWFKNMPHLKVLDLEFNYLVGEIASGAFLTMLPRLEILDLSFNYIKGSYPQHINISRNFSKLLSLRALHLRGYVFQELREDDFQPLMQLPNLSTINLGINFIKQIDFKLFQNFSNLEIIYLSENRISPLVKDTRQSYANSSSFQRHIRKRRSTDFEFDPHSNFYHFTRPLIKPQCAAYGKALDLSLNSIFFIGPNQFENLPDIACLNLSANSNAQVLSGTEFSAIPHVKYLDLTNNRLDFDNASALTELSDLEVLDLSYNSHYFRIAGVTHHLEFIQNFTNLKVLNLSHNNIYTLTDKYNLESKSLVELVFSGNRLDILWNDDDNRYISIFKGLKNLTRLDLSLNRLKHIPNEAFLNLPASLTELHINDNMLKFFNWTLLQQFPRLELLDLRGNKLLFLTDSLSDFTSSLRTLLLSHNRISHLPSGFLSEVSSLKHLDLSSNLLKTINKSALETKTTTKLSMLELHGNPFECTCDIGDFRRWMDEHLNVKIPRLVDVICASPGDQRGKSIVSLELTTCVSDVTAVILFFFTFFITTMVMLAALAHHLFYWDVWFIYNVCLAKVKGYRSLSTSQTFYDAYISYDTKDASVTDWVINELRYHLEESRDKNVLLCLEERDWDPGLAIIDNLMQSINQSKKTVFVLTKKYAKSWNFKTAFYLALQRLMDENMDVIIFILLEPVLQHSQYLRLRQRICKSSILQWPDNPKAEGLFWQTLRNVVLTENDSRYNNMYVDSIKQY
Method in brief: as §1

human TLR9 = target: T3, human TLR9 (Homo sapiens, UniProt Q9NR96); assay: TLR9 inhibition reporter assay (HEK-Blue cells, SEAP reporter, ODN2006 stimulation); conditions: HEK-Blue cells overexpressing human TLR9, SEAP reporter, ODN2006 5 nM
T3 construct: host or cells: HEK-Blue cells
T3 sequence (Q9NR96 26-1032): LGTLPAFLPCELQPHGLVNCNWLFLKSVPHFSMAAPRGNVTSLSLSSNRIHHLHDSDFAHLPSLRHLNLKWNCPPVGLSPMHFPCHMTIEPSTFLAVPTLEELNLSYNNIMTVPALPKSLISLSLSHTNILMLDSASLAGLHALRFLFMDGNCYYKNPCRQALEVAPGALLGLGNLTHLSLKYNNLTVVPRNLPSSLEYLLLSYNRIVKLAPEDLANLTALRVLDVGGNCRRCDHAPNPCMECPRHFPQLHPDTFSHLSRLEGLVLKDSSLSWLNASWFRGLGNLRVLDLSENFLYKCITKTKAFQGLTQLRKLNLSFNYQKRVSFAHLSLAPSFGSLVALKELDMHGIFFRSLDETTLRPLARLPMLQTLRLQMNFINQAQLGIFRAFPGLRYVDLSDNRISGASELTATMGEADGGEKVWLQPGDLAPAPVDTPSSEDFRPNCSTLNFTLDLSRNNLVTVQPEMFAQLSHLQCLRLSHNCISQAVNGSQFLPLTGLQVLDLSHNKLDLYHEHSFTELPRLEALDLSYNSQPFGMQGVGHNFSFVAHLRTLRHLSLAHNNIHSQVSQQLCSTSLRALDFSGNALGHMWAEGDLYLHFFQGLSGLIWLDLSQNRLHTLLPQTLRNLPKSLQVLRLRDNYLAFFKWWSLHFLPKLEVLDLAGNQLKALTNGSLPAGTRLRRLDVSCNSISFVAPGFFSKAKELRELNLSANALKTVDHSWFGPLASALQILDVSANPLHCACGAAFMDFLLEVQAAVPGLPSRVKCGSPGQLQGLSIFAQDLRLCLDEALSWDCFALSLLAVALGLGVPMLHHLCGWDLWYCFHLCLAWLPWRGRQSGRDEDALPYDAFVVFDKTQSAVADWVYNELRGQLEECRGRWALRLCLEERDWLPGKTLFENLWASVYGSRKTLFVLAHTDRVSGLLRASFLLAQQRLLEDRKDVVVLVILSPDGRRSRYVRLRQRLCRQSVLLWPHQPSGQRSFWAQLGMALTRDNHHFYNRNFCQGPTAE
Method in brief: as §1

| IC50 (human TLR7) | IC50 (human TLR8) | IC50 (human TLR9) | SMILES |
| --- | --- | --- | --- |
| 50 nM | 176 nM | > 50000 nM | COc1cc(-c2[nH]c3ccc(C4CN(C5COC5)C(C)(C)CO4)cc3c2C(C)C)cn2ncnc12 (stereo not drawn) [Example 378] |
| 15 nM | 3.4 nM | 7170 nM | COCCN1CC(c2ccc3[nH]c(-c4cc(C)c5ncnn5c4)c(C(C)C)c3c2)OCC1(C)C (stereo not drawn) [Example 382] |
| 9 nM | 41 nM | 13700 nM | COCCN1CC(c2ccc3[nH]c(-c4cc(C)c5ncnn5c4)c(C(C)C)c3c2)OCC1(C)C (stereo not drawn) [Example 383] |
| 13 nM | 11 nM | 30100 nM | Cc1cc(-c2[nH]c3ccc(C4CN(CCS(C)(=O)=O)C(C)(C)CO4)cc3c2C(C)C)cn2ncnc12 (stereo not drawn) [Example 384] |
| 14 nM | 48 nM | 20400 nM | Cc1cc(-c2[nH]c3ccc(C4CN(CC(C)(C)O)C(C)(C)CO4)cc3c2C(C)C)cn2ncnc12 (stereo not drawn) [Example 385] |
| 34 nM | 49 nM | > 50000 nM | Cc1c(-c2[nH]c3ccc(C4CN(CC(=O)N(C)C)C(C)(C)CO4)cc3c2C(C)C)cn2ncnc2c1C (stereo not drawn) [Example 386] |
| 86 nM | 44 nM | > 50000 nM | Cc1c(-c2[nH]c3ccc(C4CN(CC(=O)N(C)C)C(C)(C)CO4)cc3c2C(C)C)cn2ncnc2c1C (stereo not drawn) [Example 387] |
| 37 nM | 41 nM | > 50000 nM | CNC(=O)CN1CC(c2ccc3[nH]c(-c4cn5ncnc5c(C)c4C)c(C(C)C)c3c2)OCC1(C)C (stereo not drawn) [Example 388] |
| 22 nM | 51 nM | > 50000 nM | CNC(=O)CN1CC(c2ccc3[nH]c(-c4cn5ncnc5c(C)c4C)c(C(C)C)c3c2)OCC1(C)C (stereo not drawn) [Example 389] |
| 138 nM | 73 nM | 5880 nM | CCc1c(-c2ccc(OC)c(OC)c2)[nH]c2ccc(CN3CCNCC3)cc12 [Example 390, 2-(3,4-dimethoxyphenyl)-3-ethyl-5-(piperazin-1-ylmethyl)-1H-indole] |
| 164 nM | 354 nM | 527 nM | CCc1c(-c2ccc(OC)c(OC)c2)[nH]c2ccc(CN3CC4CNCC4C3)cc12 (stereo not drawn) [Example 391] |
| 2390 nM | 553 nM | 1180 nM | CCc1c(-c2ccc(OC)c(OC)c2)[nH]c2ccc(CN3CC4CN(C(C)C)CC4C3)cc12 (stereo not drawn) [Example 392, 2-(3,4-dimethoxyphenyl)-3-ethyl-5-{[5-(propan-2-yl)-octahydropyrrolo[3,4-c]pyrrol-2-yl]methyl}-1H-indole] |
| 18 nM | 9.3 nM | 883 nM | Cc1cc(-c2[nH]c3ccc(CCN4CCOCC4)cc3c2C(C)C)cc(C)n1 [Example 393, 2-(2,6-dimethylpyridin-4-yl)-5-[2-(morpholin-4-yl)ethyl]-3-(propan-2-yl)-1H-indole] |
| 2560 nM | 1080 nM | 2590 nM | CCc1c(-c2ccnc(C)c2)[nH]c2ccc(CN)cc12 [Example 394, [3-ethyl-2-(2-methylpyridin-4-yl)-1H-indol-5-yl]methanamine] |
| 966 nM | 182 nM | 823 nM | CCc1c(-c2ccnc(C)c2)[nH]c2ccc(CNC(=O)CCN(C)C)cc12 [Example 395, 3-(dimethylamino)-N-{[3-ethyl-2-(2-methylpyridin-4-yl)-1H-indol-5-yl]methyl}propanamide] |
| 1 nM | 3.5 nM | 1580 nM | Cc1cc(-c2[nH]c3ccc(CC4CCCN4)cc3c2C(C)C)cn2ncnc12 (stereo not drawn) [Example 398, 2-{8-methyl-[1,2,4]triazolo[1,5-a]pyridin-6-yl}-3-(propan-2-yl)-5-[(pyrrolidin-2-yl)methyl]-1H-indole] |
| 11 nM | 9.8 nM | 1960 nM | Cc1c(-c2[nH]c3ccc(CC4CNC4)cc3c2C(C)C)cn2ncnc2c1C [Example 399, 5-[(azetidin-3-yl)methyl]-2-{7,8-dimethyl-[1,2,4]triazolo[1,5-a]pyridin-6-yl}-3-(propan-2-yl)-1H-indole] |
| 18 nM | 5.1 nM | 2820 nM | Cc1c(-c2[nH]c3ccc(CC4CN(CC(=O)N(C)C)C4)cc3c2C(C)C)cn2ncnc2c1C [Example 400] |
| 27 nM | 86 nM | 3430 nM | Cc1cc(-c2[nH]c3ccc(CCN4CCS(=O)(=O)CC4)cc3c2C(C)C)cc(C)n1 [Example 401] |
| 108 nM | 74 nM | > 50000 nM | Cc1cc(-c2[nH]c3ccc(CCN4CCS(=O)(=O)CC4)cc3c2C(C)C)cn(C)c1=O [Example 402] |
| 36 nM | 7.5 nM | 23000 nM | Cc1cc(-c2[nH]c3ccc(CCN4CCOCC4)cc3c2C(C)C)cn(C)c1=O [Example 403] |
| 50 nM | 31 nM | > 50000 nM | Cc1cc(-c2[nH]c3ccc(CCN4CCCC(F)(F)C4)cc3c2C(C)C)cn(C)c1=O [Example 404] |
| 35 nM | 8.4 nM | 13700 nM | Cc1cc(-c2[nH]c3ccc(CCN4CCCC4)cc3c2C(C)C)cn(C)c1=O [Example 405] |

— patent publication US11878975B2, “Substituted indole compounds useful as TLR inhibitors” (BRISTOL-MYERS SQUIBB COMPANY, priority 2017, dated 2024)
